The text below walks through data of patent publication US8273881B2, “Phenazine compounds and use thereof in autoimmune and inflammatory diseases” (JJ Pharma, Inc., priority 2007, dated 2012).

Common to all, as to assay type: in vivo, DBA/1 LacJ mice
Assay [1] deals with total serum Ig. In words: ELISA of total serum immunoglobulin levels in CIA mice. The settings on record: prednisolone gavage; Formula III i.p.; vs control at disease onset or conclusion of trial. As to the method: (§1) All mice were pre-bled prior to the start of the trial, subsequently at onset of arthritis and at the completion of the trial. Sera were separated and stored at −80° C. ELISA assays were performed to determine anti-type II collagen antibody levels and total immunoglobulin levels.
Serum Ig levels was assessed using an ELISA assay. Dynatech Immulon I 96 well ELISA plates were coated with a 1/250 dilution of rabbit anti-mouse IgG (Axell) in PBS overnight at 4° C. Plates were washed ×3 with PBS containing 0.05% Tween, and blocked by the addition of 5% BSA in PBS. Serum samples diluted 1/400 in PBS/BSA was dispensed in triplicate, and a reference curve constructed by a doubling dilution titer of mouse Ig reference serum (Miles) from 1/500 to 1/256,000. The plate was incubated overnight at room temperature, and washed ×3 with PBS/Tween. One hundred μl of goat anti-IgG conjugated with alkaline phosphatase (Fisher-Biotek) (1:500 dilution in Milk/PBS/Tween) was added, and the incubation continued for 1 hour at 37° C. After washing×3 with PBS/Tween, 100 μl of paranitrophenyl phosphate solution (PNPP tablets, Sigma) in diethylolamine buffer was added to each well, and the reaction allowed to proceed for 20 minutes in the dark. The plate was read at 405 nm using a Photospectrometer (Molecular Devices), and the data analyzed using the SOFTmax analytical software package. […]

Assay [2] relates to Type II collagen-induced arthritis (CIA) in mice. The experiment in a line: Collagen-induced arthritis (CIA) mouse model, clinical assessment (involved paws, arthritis score). The note with it: for arthritis score vs saline control treated mice (FIG. 2), overall statement: CIA mice, route not specified; for Day post the start of therapy from which a significant reduction (p<0.02) in arthritis score was achieved: each agent at its regimen, Formula III via i.p. The source says:
Type II collagen-induced arthritis (CIA) in mice is an accepted experimental model of arthritis with a number of pathological, immunological and genetic features in common with rheumatoid arthritis. This disease is induced by immunization of susceptible strains of mice with type II collagen, the major component of joint cartilage. A progressive, inflammatory arthritis develops in the majority of immunized animals, which is characterized clinically by erythema and edema, with affected paw width increases of typically 100%. A clinical scoring index has been developed to assess disease progression to joint distortion and spondylitis. […] Immunological laboratory findings include high antibody levels to type II collagen and hypergammaglobulinemia.
This study was designed to evaluate the anti-inflammatory and anti-arthritic activity of compound of Formula III using the CIA model by observing changes in immune parameters due to treatment. The animals were administered oral corticosteroid, Enbrel, an injectable TNF inhibitor, and compound of Formula III using both oral and parenteral delivery. Seventy-five DBA/1 LacJ mice 8-10 weeks of age were obtained from Jackson Labs and quarantined in our facility for 10 days prior to experimentation. All mice weighed >16 grams at the start of the experiment. Mice were pre-bled by retro-orbital puncture, and injected with 100 μg Bovine type II collagen in Freund's complete adjuvant (FCA) intradermally at the base of the tail. Mice were monitored by daily examination for the onset of disease. Mice that developed CIA between 20 days post immunization and 42 days post immunization were assigned to one of five treatment groups on a rotational basis (to normalize onset date), and ten mice were assigned to each group. For administration, compound of Formula III was solubilized in sterile saline. To facilitate drugs delivered by oral administration, carboxymethylcellulose was added to a final concentration of 4% in all gavage solutions. Compounds were administered according to the following schedule: • Group 1. 100 μl sterile saline vehicle injected intraperitoneally (i.p.)×3/week. • Group 2. 100 μl sterile saline containing compound of Formula III at 40 mg/kg injected i.p.×3/week. • Group 3. 100 μl sterile saline containing 100 μg Enbrel injected i.p.×3/week. • Group 4. 100 μl sterile saline containing compound of Formula III at 40 mg/kg gavaged×5/week.
Group 5. 100 μl sterile saline containing prednisolone 10 mg/kg gavaged×5/week.
Mice were weighed weekly, and overall health status noted. Arthritiic animals were clinically assessed by visual inspection five times per week, and paw swelling quantified by caliper measurements made three times per week, until seven weeks after the initial onset of arthritis. All animals were assessed individually from the time of disease onset, and the appropriate findings were entered into clinical report forms.

The test system of assay [3] is anti-type II collagen antibody. The note with it: after seven weeks of treatment; for terminal anti-CII levels compared with control mice: p<0.01, prednisolone gavage, Formula III i.p.; for terminal anti-CII levels compared with titers at disease onset: prednisolone 10 mg/kg gavage, Formula III 40 mg/kg i.p. How it is done: as §1
ELISA plates (Nunc-Immuno plates, Denmark) were coated with 100 μl of coating buffer (0.4M phosphate buffer ph7.6) containing 5 μg of type II collagen, at 4° C. overnight. Plates were washed 3 times with PBS containing 0.05% Tween 20 (Sigma, St. Louis, Mo.) and non specific binding was blocked by PBS containing 5% non fat milk overnight at 4° C. Mouse sera diluted to 1/100 in 5% milk/PBS was added to each well and incubated overnight at 4° C. Subsequently, the plates were washed six times in PBS containing 0.05% Tween-20 and incubated with alkaline phosphatase conjugated goat anti-mouse Ig (Southern Biotechnology Associates, Birmingham, Ala.) at 37° C. for 1 hour. Plates were washed 6 times again and developed for 40 minutes in the dark, using p-nitrophenyl phosphate (Sigma, St. Louis, Mo.) as a chromatogen substrate. The resulting optical density was measured at 405 nm by using a UV max spectrophotometer (Molecular Devices, CA). Negative pre-bleed control sera and a standard mouse anti-CII antiserum were titered on each plate to ensure uniformity of the assay. Antibody binding was expressed as OD405 units-blank.

The subject of assay [4] is lymph node cells. In words: Lymph node cell mitogen and antigen proliferative responses (MTT) from treated CIA mice. The settings on record: lymphocytes from mice treated 40 mg/kg i.p.; p<0.05. How it is done:
Spleen and lymph nodes were removed at sacrifice, and mitogen responses to Con A and LPS, and antigen proliferative responses to type II collagen were determined using standard techniques. Lymph nodes and spleens were harvested and 1 ml of cell suspension (2.5×10^6/ml) cultured in 12-well tissue culture plates (Costar, Corning, N.Y.) with various stimuli in complete RPMI-1640 medium. Cells were incubated for 3 days at 37° C. in a 5% CO2 atmosphere in the presence of mitogen or antigen. 20 µl of MTT (a mitochondrial enzyme substrate) solution (5 mg/ml; Sigma, St Louis, Mo.) was added per well. After 6 hours, the culture supernatant was discarded, and 200 µl of 10% SDS solution added to each well. After incubation at 37° C. overnight, the optical density at 590 nm was read using a microplate photospectrometer (Molecular Devices, CA). The mean and OD values, which provide a measure of cell proliferation, were recorded for each cell sample with respect to antigen stimulation. Antigen specific responses were expressed as (OD590 [Stimulated Culture]−OD590 [Spontaneous proliferation culture])/OD590 [Spontaneous proliferation culture].

Consider `COc1cccc2c1[n+]([O-])c1cccc(O)c1[n+]2[O-]` [compound of Formula III], for which the “total serum Ig levels at the terminal bleed vs control mice” value in assay [1] is given as “this reduction was not significantly different”. Besides, in assay [2] (40 mg/kg i.p. ×3/week or gavaged ×5/week, irrespective of the route of administration), the “number of involved paws vs control mice” value was “did not significantly influence the number of involved paws”. In assay [2] (40 mg/kg i.p. ×3/week, p<0.02 from Day 23, p<0.007 at Day 24, sustained until end of trial), the “reduction in arthritis score vs saline control” value (“reduction in arthritis score” below) is recorded as “significant reduction”. In assay [2] (40 mg/kg oral gavage ×5/week), the “effect upon arthritis score vs saline control” value is listed as “did not exert a statistically significant effect”. In assay [2], the “arthritis score vs saline control treated mice (FIG. 2), overall statement” value was “marked effect upon the arthritis score” and the “Day post the start of therapy from which a significant reduction (p<0.02) in arthritis score was achieved” value was found to be 23 days. In addition, in assay [3], the “terminal anti-CII levels compared with control mice” value is “significant reduction” and the “terminal anti-CII levels compared with titers at disease onset” value was “maintenance of titers equivalent to the levels at onset”. Further, in assay [4], the “lymph node cell response to LPS” value is reported as “significant reduction”.

On to `C[C@]12C=CC(=O)C=C1CC[C@@H]1[C@@H]2[C@@H](O)C[C@@]2(C)[C@H]1CC[C@]2(O)C(=O)CO` [prednisolone], for which the “total serum Ig levels at the terminal bleed vs control mice” value in assay [1] is listed as “this reduction was not significantly different”. In addition, in assay [2], the “arthritis score vs saline control treated mice (FIG. 2), overall statement” value is “significantly reduced the arthritis score” and the “Day post the start of therapy from which a significant reduction (p<0.02) in arthritis score was achieved” value came to 12 days. Moreover, in assay [2] (prednisolone 10 mg/kg gavaged ×5/week, from Day 16 after arthritis onset throughout the study, p<0.002), the “number of involved (arthritic) paws vs control mice” value is “significantly lower number of arthritic paws”. In addition, the “reduction in arthritis score” value in assay [2] (prednisolone 10 mg/kg gavaged ×5/week, p<0.02 from Day 12, p<0.001 at day 17, sustained for remainder of trial) is recorded as “significant reduction”. Moreover, in assay [3], the “terminal anti-CII levels compared with control mice” value is “significant reduction” and the “terminal anti-CII levels compared with titers at disease onset” value is listed as “minor decrease”.

As to Enbrel, the “number of involved (arthritic) paws vs control mice” value in assay [2] (100 μg Enbrel i.p. ×3/week, Day 25 through Day 28, p<0.05) is recorded as “significantly lower number of arthritic paws”. Moreover, the “reduction in arthritis score” value in assay [2] (100 μg Enbrel i.p. ×3/week, p<0.02 from Day 12, not sustained until 23 days of therapy) is reported as “significant reduction”. Moreover, in assay [2], the “arthritis score vs saline control treated mice (FIG. 2), overall statement” value is recorded as “significantly reduced the arthritis score” and the “Day post the start of therapy from which a significant reduction (p<0.02) in arthritis score was achieved” value was 12 days.
